A short description of series [1]: AUC (0 to 24 hrs) in CD-1 mouse at […] administered through gavage. Type of series: ADME, organism-based. The settings on record: plasma, po.
Series [2] in a line: Drug level in CD-1 mouse serum at […] administered through gavage after 24 hrs. Type of series: ADME. The settings on record: po, read-out: Drug uptake.
Series [3] in a line: AUC in human at 400 mg, po. Type of series: ADME, organism-based. The settings on record: plasma.
The subject of series [4] is Mycobacterium tuberculosis. Put plainly: Antimicrobial activity against Mycobacterium tuberculosis H37Rv infected in CD-1 mouse lung. Type of series: functional.
In series [5] the test system is Mycobacterium tuberculosis. Type of series: functional.
For series [6], the system named is Mycobacterium tuberculosis. Type of series: functional. This is another data set of the same source.
The subject of series [7] is Mycobacterium tuberculosis. Put plainly: Antimicrobial activity against Mycobacterium tuberculosis H37Rv infected in CD-1 mouse lung at 75 mg/kg administered through gavage. Type of series: functional.
In series [8] the test system is Mycobacterium tuberculosis. Put plainly: Antimicrobial activity against avirulent Mycobacterium tuberculosis H37Ra.

Molecules are shown by their SMILES. In brackets after ≈: the same amount, converted by molar mass.

Molecule `COc1c(N2C[C@@H]3CCCN[C@@H]3C2)c(F)cc2c(=O)c(C(=O)O)cn(C3CC3)c12` [MOXIFLOXACIN] showed an AUC(0-t) in series [1] of 27400 ng·h/mL. In addition, the concentration at 24 h in series [2] was 8000 ng/mL. Besides, in series [3], the AUC was 26900 ng·h/mL. The log10cfu in series [4] worked out at 7.87; in series [5] it was 8.61; in series [6], 3.48; in series [7] it was 0.93. In series [8], the MIC is 0.25 µg/mL (≈ 0.623 µM).

By AUC(0-t) is commonly meant the area under the concentration-time curve up to a stated or last time point. Read a high AUC(0-t) as high exposure. As usually defined, the AUC is the area under the concentration-time curve, a measure of exposure. Low values mean low exposure, high ones high exposure. The MIC is the smallest concentration in the dilution series that meets the test's criterion for growth inhibition.
